Results on 25 compounds are retold here after patent US7109243B2 (IRM LLC, priority 2003, dated 2006).

Like-named read-outs stand apart in the source and are kept apart here.

One assay has as its target Cathepsin S (Homo sapiens, UniProt P25774). The assay is described as follows: Cathepsin S inhibition assay (fluorogenic peptide substrate). In kind it is biochemical. The essentials:
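Ki values come from nonlinear fitting of inhibited hydrolysis rates, taking free and total inhibitor concentrations as equal. Rates measured as rising fluorescence at 380/450 nm after reaction start with 50 μM final acetyl-HPVK-aminocarbamoylcoumarin.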

The next assay deals with T1, Cathepsin K (Homo sapiens, UniProt P43235).
T1 sequence (P43235 115-329): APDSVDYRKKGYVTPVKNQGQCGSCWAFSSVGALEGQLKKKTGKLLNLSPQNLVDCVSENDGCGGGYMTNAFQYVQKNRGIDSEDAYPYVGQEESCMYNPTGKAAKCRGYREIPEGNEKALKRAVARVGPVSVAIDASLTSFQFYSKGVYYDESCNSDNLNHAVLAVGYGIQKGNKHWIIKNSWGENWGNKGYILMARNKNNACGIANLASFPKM
The assay is described as follows: Cathepsin K inhibition assay (fluorogenic peptide substrate); selectivity ratio vs cathepsin S. In kind it is biochemical. The method in brief:
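Inhibition constants for competitive inhibitors come from apparent values fitted to enzyme progress curves. Substrate, acetyl-Lys-His-Pro-Lys-aminocarbamoylcoumarin (40 μM final), starts the reaction; fluorescence rise read at 380 nm excitation, 450 nm emission. Selectivity ratio: other cathepsin constant over cathepsin S constant.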

[1] abbreviates: Table II, compounds of Formula I, read-out: Ki Cat. S.
[2] abbreviates: ratio of cathepsin K inhibition constant to cathepsin S inhibition constant, Table II.

Cathepsin S, sequence (P25774 115-331, species assumed): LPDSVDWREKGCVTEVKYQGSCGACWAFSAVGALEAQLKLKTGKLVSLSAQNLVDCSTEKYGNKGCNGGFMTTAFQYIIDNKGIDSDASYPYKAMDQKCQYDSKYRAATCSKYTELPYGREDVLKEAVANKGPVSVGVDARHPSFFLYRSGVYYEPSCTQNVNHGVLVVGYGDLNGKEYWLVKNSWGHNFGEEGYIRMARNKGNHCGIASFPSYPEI

On to `CS(=O)(=O)c1ccc(C(=O)N[C@@H](CC2CCCCC2)C(=O)NCCNc2ccc(F)cc2)cc1` [Compound 313, N-(S)-{2-cyclohexyl-1-[2-(4-fluoro-phenylamino)-ethylcarbamoyl]-ethyl}-4-methanesulfonyl-benzamide], for which the Ki (as a rule, the equilibrium dissociation constant of an inhibitor or competing ligand from its target) at Cathepsin S (setting [1]) is below 1 µM. Also, the “Selectivity for Cat. S over Cat. K” value on Cathepsin K (setting [2]) is recorded as “+ (+, >10)”.

As for `COc1ccc(NCCNC(=O)[C@H](CC2CCCCC2)NC(=O)c2ccc(F)c(C(F)(F)F)c2)cc1` [Compound 149, (S)-N-{2-Cyclohexyl-1-[2-(4-methoxy-phenylamino)-ethylcarbamoyl]-ethyl}-4-fluoro-3-trifluoromethyl-benzamide], at Cathepsin S (setting [1]), the inhibition constant (Ki) is below 0.1 µM. The “Selectivity for Cat. S over Cat. K” value at Cathepsin K (setting [2]) is given as “+++ (+++, >1000)”.

As to `O=C(N[C@@H](CC1CCCCC1)C(=O)NCCNc1ccc(OC(F)(F)F)cc1)c1ccc(-c2cnco2)cc1` [Compound 67, N-(S)-{2-cyclohexyl-1-[2-(4-trifluoromethoxy-phenylamino)-ethylcarbamoyl]-ethyl}-4-oxazol-5-yl-benzamide], the Ki at Cathepsin S (setting [1]) is below 0.1 µM. The “Selectivity for Cat. S over Cat. K” value on Cathepsin K (setting [2]) is “+ (+, >10)”.

As for `O=C(N[C@@H](CC1CCCCC1)C(=O)NCCNc1ccc(F)cc1)C(c1ccccc1)c1ccccc1` [Compound 307, 3-Cyclohexyl-2-(S)-diphenylacetylamino-N-[2-(4-fluoro-phenylamino)-ethyl]-propionamide], on Cathepsin S (setting [1]), the Ki is below 0.1 µM. Further, the “Selectivity for Cat. S over Cat. K” value on Cathepsin K (setting [2]) was “+++ (+++, >1000)”.

For `O=C(Cc1ccccc1F)N[C@@H](CC1CCCCC1)C(=O)NCCNc1ccc(F)cc1` [Compound 306, 3-Cyclohexyl-2-(S)-[2-(2-fluoro-phenyl)-acetylamino]-N-[2-(4-fluoro-phenylamino)-ethyl]-propionamide], the Ki on Cathepsin S (setting [1]) was below 0.1 µM. For the same compound, at Cathepsin K (setting [2]), the “Selectivity for Cat. S over Cat. K” value was “+++ (+++, >1000)”.

For `COc1ccc(NCCNC(=O)[C@H](CC2CCCCC2)NC(=O)c2ccc(-c3cccc(OC)c3)cc2)cc1` [Compound 172, (S)-3′-Methoxy-biphenyl-4-carboxylic acid {2-cyclohexyl-1-[2-(4methoxy-phenylamino)-ethylcarbamoyl]-ethyl}-amide], on Cathepsin S (setting [1]), the Ki was below 0.1 µM. The “Selectivity for Cat. S over Cat. K” value on Cathepsin K (setting [2]) is “+++ (+++, >1000)”.

For the compound `CC(C)C[C@H](NC(=O)OCc1ccccc1)C(=O)NCCNc1cccc2ccccc12` [reference compound], the Ki on Cathepsin S (comparison compounds in the art, read-out: Ki (CatS)) is below 1 µM; on Cathepsin K (comparison compounds in the art, read-out: Ki (CatK)) it was below 0.1 µM. Moreover, at Cathepsin K (comparison compounds in the art, ratio Ki CatK / Ki CatS), the “Selectivity for Cat. S over Cat. K” value is given as below 10.

Regarding `COc1ccc(NCCNC(=O)[C@H](Cc2ccc(Oc3cc(C)cc(C)c3)cc2)NC(=O)c2cccc(C)c2)cc1` [Compound 330, (S)-N-{2-[4-(3,5-Dimethyl-phenoxy)-phenyl]-1-[2-(4-methoxy-phenylamino)-ethylcarbamoyl]-ethyl}-3-methyl-benzamide], the Ki at Cathepsin S (setting [1]) is below 1 µM. For the same compound, on Cathepsin K (setting [2]), the “Selectivity for Cat. S over Cat. K” value is listed as “++ (++, >100)”.

As to `COc1ccc(NCCNC(=O)[C@H](Cc2ccc(Oc3ccccc3)cc2)NC(=O)c2cccc(C)c2)cc1` [Compound 327, (S)-N-[1-[2-(4-Methoxy-phenylamino)-ethylcarbamoyl]-2-(4-phenoxy-phenyl)-ethyl]-3-methyl-benzamide], at Cathepsin S (setting [1]), the Ki is below 1 µM. In addition, the “Selectivity for Cat. S over Cat. K” value on Cathepsin K (setting [2]) is “++ (++, >100)”.

For the compound `COc1ccc(NCCNC(=O)[C@H](Cc2ccccc2)NC(=O)Nc2ccccc2C)cc1` [Compound 97, (S)-N-[2-(4-Methoxy-phenylamino)-ethyl]-3-phenyl-2-(3-o-tolyl-ureido)-propionamide], on Cathepsin S (setting [1]), the Ki was below 1 µM. At Cathepsin K (setting [2]), the “Selectivity for Cat. S over Cat. K” value was “+ (+, >10)”.

With `COc1ccc(NCCNC(=O)C(NC(=O)c2cccc(C)c2)C(C)c2ccccc2)cc1` (stereo not drawn) [Compound 269, erythro-N-{1-[2-(4-Methoxy-phenylamino)-ethylcarbamoyl]-2-phenyl-propyl}-3-methyl-benzamide], at Cathepsin S (setting [1]), the Ki is below 10 µM. At Cathepsin K (setting [2]), the “Selectivity for Cat. S over Cat. K” value is recorded as “+ (+, >10)”.

Take `COc1ccc(NCCNC(=O)C(NC(=O)c2cccc(C)c2)c2ccc(OC)cc2)cc1` (stereo not drawn) [Compound 211, N-{(4-Methoxy-phenyl)-[2-(4-methoxy-phenylamino)-ethylcarbamoyl]-methyl}-3-methyl-benzamide]: on Cathepsin S (setting [1]), the Ki was below 1 µM. Moreover, on Cathepsin K (setting [2]), the “Selectivity for Cat. S over Cat. K” value was “++ (++, >100)”.

With `O=C(Cc1ccc(F)cc1Cl)N[C@@H](CC1CCCCC1)C(=O)NCCNc1ccc(F)cc1` [Compound 107, 2-(S)-[2-(2-Chloro-4-fluoro-phenyl)-acetylamino]-3-cyclohexyl-N-[2-(4-fluoro-phenylamino)-ethyl]-propionamide], on Cathepsin S (setting [1]), the Ki is below 0.1 µM. Besides, the “Selectivity for Cat. S over Cat. K” value at Cathepsin K (setting [2]) was “+++ (+++, >1000)”.

With `COc1ccc(NCCNC(=O)C(NC(=O)c2cccc(C)c2)c2ccc(F)cc2)cc1` (stereo not drawn) [Compound 227, N-{(4-Fluoro-phenyl)-[2-(4-methoxy-phenylamino)-ethylcarbamoyl]-methyl}-3-methyl-benzamide], the Ki at Cathepsin S (setting [1]) is below 1 µM. Also, the “Selectivity for Cat. S over Cat. K” value on Cathepsin K (setting [2]) is reported as “++ (++, >100)”.

Take `COc1ccc(NCCNC(=O)C(NC(=O)c2cccc(C)c2)c2cccs2)cc1` (stereo not drawn) [Compound 226, N-{[2-(4-Methoxy-phenylamino)-ethylcarbamoyl]-thiophen-2-yl-methyl}-3-methyl-benzamide]: the Ki on Cathepsin S (setting [1]) is below 10 µM. In addition, the “Selectivity for Cat. S over Cat. K” value on Cathepsin K (setting [2]) is recorded as “+ (+, >10)”.

With `Cc1cc(C)nc(Nc2ccc(C(=O)N[C@@H](CC3CCCCC3)C(=O)NCCNc3ccc(OC(F)(F)F)cc3)cc2)n1` [Compound 92, N-(S)-{2-cyclohexyl-1-[2-(4-trifluoromethoxy-phenylamino)-ethylcarbamoyl]-ethyl}-4-(4,6-dimethyl-pyrimidin-2-ylamino)-benzamide], at Cathepsin S (setting [1]), the Ki is below 0.1 µM. Also, the “Selectivity for Cat. S over Cat. K” value on Cathepsin K (setting [2]) is on record as “+ (+, >10)”.

As to `O=C(N[C@@H](CC1CCCCC1)C(=O)NCCNc1ccc(OC(F)(F)F)cc1)c1ccc(-c2cccc(C(F)(F)F)c2)s1` [Compound 50, 5-(3-Trifluoromethyl-phenyl)-thiophene-2-carboxylic acid (S)-{2-cyclohexyl-1-[2-(4-trifluoromethoxy-phenylamino)-ethylcarbamoyl]-ethyl}-amide], the Ki at Cathepsin S (setting [1]) is below 0.1 µM. At Cathepsin K (setting [2]), the “Selectivity for Cat. S over Cat. K” value was “+++ (+++, >1000)”.

As to `COc1ccc(NCCNC(=O)[C@H](Cc2ccccc2)NC(=O)Nc2ccc(Cl)cc2)cc1` [Compound 88, (S)-2-[3-(4-Chloro-phenyl)-ureido]-N-[2-(4-methoxy-phenylamino)-ethyl]-3-phenyl-propionamide], the Ki at Cathepsin S (setting [1]) is below 1 µM. In addition, on Cathepsin K (setting [2]), the “Selectivity for Cat. S over Cat. K” value is on record as “+ (+, >10)”.

`COc1ccc(NCCNC(=O)[C@H](CCC2CCCCC2)NC(=O)c2cccc(C(F)(F)F)c2)cc1` [Compound 126, (S)-N-{3-Cyclohexyl-1-[2-(4-methoxy-phenylamino)-ethylcarbamoyl]-propyl}-3-trifluoromethyl-benzamide]: the Ki at Cathepsin S (setting [1]) is below 0.1 µM. Also, at Cathepsin K (setting [2]), the “Selectivity for Cat. S over Cat. K” value is recorded as “+++ (+++, >1000)”.

Turning to `O=C(N[C@@H](CC1CCCCC1)C(=O)NCCNc1ccc(OC(F)(F)F)cc1)c1ccc(-c2ccccc2C(F)(F)F)s1` [Compound 35, 5-(2-Trifluoromethyl-phenyl)-thiophene-2-carboxylic acid (S)-{2-cyclohexyl-1-[2-(4-trifluoromethoxy-phenylamino)-ethylcarbamoyl]-ethyl}-amide], the Ki on Cathepsin S (setting [1]) was below 0.1 µM. Further, the “Selectivity for Cat. S over Cat. K” value at Cathepsin K (setting [2]) is listed as “+ (+, >10)”.

`COc1ccc(NCCNC(=O)[C@H](Cc2ccc(Oc3ccc(Cl)cc3)cc2)NC(=O)c2cccc(C)c2)cc1` [Compound 300, (S)-N-{2-[4-(4-Chloro-phenoxy)-phenyl]-1-[2-(4-methoxy-phenylamino)-ethylcarbamoyl]-ethyl}-3-methyl-benzamide]: the Ki at Cathepsin S (setting [1]) is below 0.1 µM. Also, the “Selectivity for Cat. S over Cat. K” value at Cathepsin K (setting [2]) is “++ (++, >100)”.

Turning to `O=C(N[C@@H](CC1CCCCC1)C(=O)NCCNc1ccc(OC(F)(F)F)cc1)c1ccc(-c2cccc(F)c2)s1` [Compound 36, 5-(3-Fluoro-phenyl)-thiophene-2-carboxylic acid (S)-{2-cyclohexyl-1-[2-(4-trifluoromethoxy-phenylamino)-ethylcarbamoyl]-ethyl}-amide], on Cathepsin S (setting [1]), the Ki is below 0.1 µM. For the same compound, at Cathepsin K (setting [2]), the “Selectivity for Cat. S over Cat. K” value is recorded as “++ (++, >100)”.

For the compound `COc1ccc(NCCNC(=O)[C@H](CC2CCCCC2)NC(=O)c2ccc(F)c(C)c2)cc1` [Compound 167, (S)-N-{2-Cyclohexyl-1-[2-(4-methoxy-phenylamino)-ethylcarbamoyl]-ethyl}-4-fluoro-3-methyl-benzamide], the Ki at Cathepsin S (setting [1]) was below 0.1 µM. The “Selectivity for Cat. S over Cat. K” value on Cathepsin K (setting [2]) is on record as “+++ (+++, >1000)”.

`CS(=O)(=O)c1ccc(C(=O)N[C@@H](CC2CCCCC2)C(=O)NCCNc2ccc(F)cc2)s1` [Compound 293, 5-Methanesulfonyl-thiophene-2-carboxylic acid (S)-{2-cyclohexyl-1-[2-(4-fluoro-phenylamino)-ethylcarbamoyl]-ethyl}-amide]: the Ki at Cathepsin S (setting [1]) was below 0.1 µM. For the same compound, the “Selectivity for Cat. S over Cat. K” value at Cathepsin K (setting [2]) is recorded as “++ (++, >100)”.

In the case of `COc1ccc(NCCNC(=O)[C@H](Cc2ccccc2)NC(=O)NCc2ccc(F)cc2)cc1` [Compound 91, (S)-2-[3-(4-Fluoro-benzyl)-ureido]-N-[2-(4-methoxy-phenylamino)-ethyl]-3-phenyl-propionamide], the Ki on Cathepsin S (setting [1]) is below 10 µM. The “Selectivity for Cat. S over Cat. K” value on Cathepsin K (setting [2]) is recorded as “+ (+, >10)”.
